Reference: the NIST ThermoML archive (doi:10.1016/j.tca.2013.08.031)

Test: molar heat capacity at constant volume
Details: Fluid (supercritical or subcritical phases), Vacuum adiabatic calorimetry

CCC(C)O (stereo not given) [butan-2-ol]
Details | molar heat capacity at constant volume [J/K/mol]
535.75 K, Mass density=276.45 kg/m3 | 527.97
535.77 K, Mass density=276.45 kg/m3 | 533.08
535.79 K, Mass density=276.45 kg/m3 | 548.5
535.81 K, Mass density=276.45 kg/m3 | 529.67
535.83 K, Mass density=276.45 kg/m3 | 536.49
535.85 K, Mass density=276.45 kg/m3 | 560.43
535.86 K, Mass density=276.45 kg/m3 | 562.14
535.88 K, Mass density=276.45 kg/m3 | 565.55
535.9 K, Mass density=276.45 kg/m3 | 627.07
535.92 K, Mass density=198.25 kg/m3 | 287.44
535.92 K, Mass density=245.67 kg/m3 | 437.17
535.92 K, Mass density=276.45 kg/m3 | 603.13
535.92 K, Mass density=279.19 kg/m3 | 513.14
535.92 K, Mass density=284.93 kg/m3 | 498.99
535.92 K, Mass density=286.65 kg/m3 | 532.71
535.92 K, Mass density=301.19 kg/m3 | 383.21
535.92 K, Mass density=347.06 kg/m3 | 252.01
535.94 K, Mass density=284.93 kg/m3 | 419.68
535.94 K, Mass density=286.65 kg/m3 | 578.37
535.95 K, Mass density=284.93 kg/m3 | 421.31
535.95 K, Mass density=286.65 kg/m3 | 524.41
535.97 K, Mass density=284.93 kg/m3 | 349.85
535.97 K, Mass density=286.65 kg/m3 | 524.41
535.99 K, Mass density=284.93 kg/m3 | 316.57
536.01 K, Mass density=284.93 kg/m3 | 314.87
536.01 K, Mass density=286.65 kg/m3 | 402.85
536.02 K, Mass density=284.93 kg/m3 | 309.9
536.02 K, Mass density=286.65 kg/m3 | 345.48
536.04 K, Mass density=284.93 kg/m3 | 311.53
536.04 K, Mass density=286.65 kg/m3 | 354.45
536.06 K, Mass density=284.93 kg/m3 | 311.53
536.06 K, Mass density=286.65 kg/m3 | 328.36
536.07 K, Mass density=284.93 kg/m3 | 306.57
536.07 K, Mass density=286.65 kg/m3 | 328.58
536.1 K, Mass density=198.25 kg/m3 | 281.66
536.1 K, Mass density=245.67 kg/m3 | 331.55
536.1 K, Mass density=279.19 kg/m3 | 476.23
536.1 K, Mass density=284.93 kg/m3 | 291.59
536.1 K, Mass density=286.65 kg/m3 | 323.99
536.1 K, Mass density=301.19 kg/m3 | 296.49
536.1 K, Mass density=347.06 kg/m3 | 251.27
536.29 K, Mass density=198.25 kg/m3 | 285.44
536.29 K, Mass density=245.67 kg/m3 | 329.17
536.29 K, Mass density=276.45 kg/m3 | 321.32
536.29 K, Mass density=279.19 kg/m3 | 304.71
536.29 K, Mass density=284.93 kg/m3 | 286.04
536.29 K, Mass density=286.65 kg/m3 | 321.09
536.29 K, Mass density=301.19 kg/m3 | 280.18
536.29 K, Mass density=347.06 kg/m3 | 249.79
536.47 K, Mass density=245.67 kg/m3 | 323.47
536.47 K, Mass density=276.45 kg/m3 | 313.68
536.47 K, Mass density=279.19 kg/m3 | 298.27
536.47 K, Mass density=284.93 kg/m3 | 280.77
536.47 K, Mass density=286.65 kg/m3 | 317.39
536.47 K, Mass density=301.19 kg/m3 | 281.66
536.47 K, Mass density=347.06 kg/m3 | 252.75
536.65 K, Mass density=245.67 kg/m3 | 321.24
536.65 K, Mass density=276.45 kg/m3 | 308.64
536.65 K, Mass density=279.19 kg/m3 | 293.23
536.65 K, Mass density=284.93 kg/m3 | 276.92
536.65 K, Mass density=286.65 kg/m3 | 311.53
536.65 K, Mass density=301.19 kg/m3 | 277.96
536.65 K, Mass density=347.06 kg/m3 | 246.82
536.83 K, Mass density=245.67 kg/m3 | 318.35
536.83 K, Mass density=276.45 kg/m3 | 300.12
536.83 K, Mass density=279.19 kg/m3 | 287.74
536.83 K, Mass density=284.93 kg/m3 | 274.25
536.84 K, Mass density=347.06 kg/m3 | 250.53
537.02 K, Mass density=279.19 kg/m3 | 289.37
537.02 K, Mass density=284.93 kg/m3 | 272.03
537.02 K, Mass density=301.19 kg/m3 | 263.13
537.02 K, Mass density=347.06 kg/m3 | 248.31
537.2 K, Mass density=245.67 kg/m3 | 296.34
537.2 K, Mass density=276.45 kg/m3 | 295.37
537.2 K, Mass density=279.19 kg/m3 | 287.81
537.2 K, Mass density=284.93 kg/m3 | 271.51
537.2 K, Mass density=286.65 kg/m3 | 304.94
537.2 K, Mass density=301.19 kg/m3 | 266.84
537.38 K, Mass density=245.67 kg/m3 | 296.56
537.38 K, Mass density=276.45 kg/m3 | 285.37
537.38 K, Mass density=279.19 kg/m3 | 282.48
537.38 K, Mass density=284.93 kg/m3 | 270.32
537.38 K, Mass density=286.65 kg/m3 | 304.42
537.38 K, Mass density=301.19 kg/m3 | 263.13
537.57 K, Mass density=245.67 kg/m3 | 297.52
537.57 K, Mass density=276.45 kg/m3 | 284.11
537.57 K, Mass density=279.19 kg/m3 | 284.26
537.57 K, Mass density=284.93 kg/m3 | 268.17
537.57 K, Mass density=286.65 kg/m3 | 301.23
537.57 K, Mass density=301.19 kg/m3 | 260.17
537.75 K, Mass density=276.45 kg/m3 | 282.92
537.75 K, Mass density=284.93 kg/m3 | 267.36
537.75 K, Mass density=286.65 kg/m3 | 302.27
537.75 K, Mass density=301.19 kg/m3 | 260.17
537.93 K, Mass density=117 kg/m3 | 227.92
537.93 K, Mass density=279.19 kg/m3 | 277.21
537.93 K, Mass density=286.65 kg/m3 | 301.23
537.93 K, Mass density=301.19 kg/m3 | 259.43
538.11 K, Mass density=117 kg/m3 | 182.93
538.11 K, Mass density=279.19 kg/m3 | 274.92
538.11 K, Mass density=301.19 kg/m3 | 253.5
538.3 K, Mass density=279.19 kg/m3 | 277.66
538.3 K, Mass density=286.65 kg/m3 | 295.15
538.3 K, Mass density=301.19 kg/m3 | 255.72
538.48 K, Mass density=117 kg/m3 | 269.06
